For 7 compounds, MIC results are on record in patent US20250270246A1, “LINCOSAMIDES AND USES THEREOF” (President and Fellows of Harvard College, priority 2022, published 2025).

SMILES strings stand for the structures. Structures can show the parent of a compound that is named as a salt. Where two headings read alike, the source gives them in different places.

Common to all, as to assay: MIC by broth microdilution (CLSI)
What all share (format): cell-based

Experiment [1] concerns A. baumannii ATCC 19606 (HAV#010). To be noted: Acinetobacter baumannii, ATCC19606, 24 h, read-out: MIC A. baumannii ATCC 19606. In outline:
(§1)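 Strains were grown overnight on blood agar at 35° C, suspended in CaMHB to 0.5 McFarland, then diluted to 5×10^5 CFU/mL. Compounds (64-0.06 μg/mL, 2.5% final DMSO) were tested by CLSI microdilution. Visible growth was scored after 24 h.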

For experiment [2], the system named is E. coli ATCC 25922 (HAV#006). To be noted: Escherichia coli, ATCC25922, 24 h, read-out: MIC E. coli ATCC 25922. In outline: as §1
In experiment [3] the test system is E. coli HAV#038, ΔTolC. Particulars: Escherichia coli, 24 h, read-out: MIC E. coli HAV#038, ΔTolC. Summed up:
as §1

Experiment [4] deals with E. coli HAV#040, LptD. To be noted: Escherichia coli, 24 h, read-out: MIC E. coli HAV#040, LptD. Summed up:
as §1

In experiment [5] the test system is E. faecalis ATCC 29212 (HAV#005). Particulars: Enterococcus faecalis, ATCC29212, 24 h, read-out: MIC E. faecalis ATCC 29212. Summed up: as §1
For experiment [6], the system named is E. faecium HAV#318, VRE; clinical. To be noted: Enterococcus faecium, read-out: MIC E. faecium HAV#318, VRE. Summed up: as §1
In experiment [7] the test system is K. oxytoca HAV#450; Clinical. Particulars: Klebsiella oxytoca, read-out: MIC K. oxytoca HAV#450. Summed up:
as §1

Experiment [8] concerns K. pneumoniae HAV#402, FQ-R. To be noted: Klebsiella pneumoniae, read-out: MIC K. pneumoniae HAV#402, FQ-R. In outline:
as §1

In experiment [9] the test system is S. aureus ATCC 29213 (HAV#001). To be noted: Staphylococcus aureus, ATCC29213, 24 h, read-out: MIC S. aureus ATCC 29213. In outline: as §1
The test system of experiment [10] is S. aureus HAV#031, c-ermA. Particulars: Staphylococcus aureus, read-out: MIC S. aureus HAV#031, c-ermA. In outline: as §1
Experiment [11] deals with S. aureus HAV#216, cfr. To be noted: Staphylococcus aureus, read-out: MIC S. aureus HAV#216, cfr. Summed up: as §1
Experiment [12] deals with S. pyogenes HAV#033, c-ermB. To be noted: Streptococcus pyogenes, read-out: MIC S. pyogenes HAV#033, c-ermB. In outline: as §1
The subject of experiment [13] is E. coli lptD mutant. To be noted: Escherichia coli, 24 h, read-out: MIC E. coli lptD mutant, lptD mutant / ΔlptD mutant; CaMHB, 24 h incubation. Summed up: as §1
Experiment [14] relates to E. coli ΔtolC. Particulars: Escherichia coli, 24 h, read-out: MIC E. coli ΔtolC, ΔtolC; CaMHB, 24 h incubation. In outline:
as §1

For experiment [15], the system named is E. faecium JMI-990536. Particulars: Enterococcus faecium, JMI990536, 24 h, read-out: MIC E. faecium JMI-990536. In outline:
as §1

Experiment [16] relates to K. pneumoniae JMI-991193. Particulars: Klebsiella pneumoniae, JMI991193, 24 h, read-out: MIC K. pneumoniae JMI-991193. Summed up:
as §1

The subject of experiment [17] is S. aureus Clinical (cfr). Particulars: Staphylococcus aureus, 24 h, read-out: MIC S. aureus Clinical (cfr). In outline: as §1
Experiment [18] concerns S. aureus MMX 3035. Particulars: Staphylococcus aureus, MMX3035, 24 h, read-out: MIC S. aureus MMX 3035. In outline:
as §1

Experiment [19] concerns S. pneumoniae c-ermB. To be noted: Streptococcus pneumoniae, 24 h, read-out: MIC S. pneumoniae c-ermB. In outline:
as §1

The mark [20] stands for this setting: HAV#010, ATCC 19606, CaMHB, 24 h incubation.
Setting [21] is: HAV#006, ATCC 25922, CaMHB, 24 h incubation.
Setting [22] is: HAV#005, ATCC 29212, CaMHB, 24 h incubation.
[23] abbreviates: HAV#001, ATCC 29213, CaMHB, 24 h incubation.
[24] abbreviates: JMI-990536, CaMHB, 24 h incubation.
Where [25] appears, read: JMI-991193, CaMHB, 24 h incubation.
The mark [26] stands for this setting: Clinical (cfr), CaMHB, 24 h incubation.
[27] abbreviates: MMX 3035, CaMHB, 24 h incubation.

Take `CC(C)C[C@@H]1CCO[C@@H]2[C@@H](C1)CN(C)[C@@H]2C(=O)N[C@@H]1C/C=C\CCS[C@H]2O[C@H]1[C@H](O)[C@H](O)[C@H]2O` [FSA1508003, (4S,5aS,8S,8aR)-4-isobutyl-7-methyl-8-(((1R,8R,9R,10R,11S,12R,Z)-10,11,12-trihydroxy-13-oxa-2-thiabicyclo[7.3.1]tridec-5-en-8-yl)carbamoyl) octahydro-2H-oxepino[2,3-c]pyrrol-7-ium formate]: the MIC in [1] came out at 2 µg/mL; in experiment [2], 4 µg/mL; in [3], 0.25 µg/mL; in [4], 0.25 µg/mL; in [5], 0.125 µg/mL; in experiment [6] (24 h), 1 µg/mL. Moreover, the MIC was found to be 8 µg/mL in experiment [7] (24 h); 16 µg/mL in experiment [8] (24 h); 0.125 µg/mL in experiment [9]; 2 µg/mL in [10] (24 h); 8 µg/mL in experiment [11] (24 h); 2 µg/mL in [12] (24 h).
Consider `CC(C)C[C@@H]1CCO[C@@H]2[C@H](CN[C@@H]2C(=O)N[C@H]2C3OC(SCC/C=C/[C@@H]2C)C(O)C(O)C3O)C1` (single isomer, unassigned) [FSA1507068, formate salt], for which the MIC in [1] (setting [20]) is 4 µg/mL; in experiment [2] (setting [21]) it was 4 µg/mL; in experiment [3] it was 0.5 µg/mL; in experiment [4], 0.5 µg/mL; in experiment [5] (setting [22]), 0.125 µg/mL; in experiment [6] (CaMHB, 24 h incubation) it was 0.5 µg/mL. The MIC in experiment [7] (CaMHB, 24 h incubation) is 8 µg/mL; in [8] (FQ-R, CaMHB, 24 h incubation), 8 µg/mL; in experiment [9] (setting [23]), at most 0.06 µg/mL; in experiment [10] (c-ermA, CaMHB, 24 h incubation), 0.5 µg/mL; in experiment [11] (cfr, CaMHB, 24 h incubation), 2 µg/mL; in [12] (c-ermB, CaMHB, 24 h incubation), 0.25 µg/mL.
Regarding `CC(C)C[C@@H]1CCO[C@@H]2[C@H](CN[C@@H]2C(=O)N[C@H]2[C@H]3O[C@H](S[C@H](c4cn(-c5cccc(Cl)c5)nn4)C/C=C\[C@H]2C)[C@H](O)[C@@H](O)[C@H]3O)C1` [FSA1609015, (4S,5aS,8S,8aR)—N-((1R,3S,7R,8R,9R,10R,11S,12R,Z)-3-(1-(3-chlorophenyl)-1H-1,2,3-triazol-4-yl)-10,11,12-trihydroxy-7-methyl-13-oxa-2-thiabicyclo[7.3.1]tridec-5-en-8-yl)-4-isobutyloctahydro-2H-oxepino[2,3-c]pyrrole-8-carboxamide formate salt], the MIC in experiment [1] came out at 8 µg/mL; in experiment [2], 8 µg/mL; in experiment [13], 2 µg/mL; in experiment [14] it was 2 µg/mL; in experiment [5] it was 2 µg/mL; in experiment [15], 0.5 µg/mL. Further, the MIC in experiment [16] stood at 32 µg/mL; in experiment [9] it was 1 µg/mL; in [17], 2 µg/mL; in [18], 2 µg/mL; in experiment [19], 0.25 µg/mL.
With `CC(C)C[C@@H]1CCO[C@@H]2[C@H](CN[C@@H]2C(=O)N[C@@H]2C/C=C\C[C@H](CO)S[C@H]3O[C@H]2[C@H](O)[C@H](O)[C@H]3O)C1` [FSA1606033, (4S,5aS,8S,8aR)-4-isobutyl-N-((1R,3R,8R,9R,10R,11S,12R,Z)-10,11,12-trihydroxy-3-(hydroxymethyl)-13-oxa-2-thiabicyclo[7.3.1]tridec-5-en-8-yl) octahydro-2H-oxepino[2,3-c]pyrrole-8-carboxamide hydrochloride salt], the MIC stood at 64 µg/mL in experiment [1] (setting [20]); 16 µg/mL in experiment [2] (setting [21]); 4 µg/mL in experiment [13]; 1 µg/mL in experiment [14]; 1 µg/mL in [5] (setting [22]); 16 µg/mL in [15] (setting [24]). The MIC is above 64 µg/mL in experiment [16] (setting [25]); 1 µg/mL in experiment [9] (setting [23]); 32 µg/mL in experiment [17] (setting [26]); 16 µg/mL in [18] (setting [27]); 4 µg/mL in [19].
As for `CC(C)C[C@@H]1CCO[C@@H]2[C@@H](C1)CN(C)[C@@H]2C(=O)N[C@H]1C2OC(SCC/C=C\[C@H]1C)C(O)C(O)C2O` (single isomer, unassigned) [FSA1508001, formate], the MIC in experiment [1] came out at 2 µg/mL; in [2] it was 8 µg/mL; in experiment [3], 0.25 µg/mL; in [4], 0.25 µg/mL; in experiment [5], 0.125 µg/mL; in [6] (24 h), 0.25 µg/mL. Further, the MIC is 16 µg/mL in experiment [7] (24 h); 64 µg/mL in [8] (24 h); 0.25 µg/mL in [9]; 0.5 µg/mL in experiment [10] (24 h); 1 µg/mL in experiment [11] (24 h); 0.25 µg/mL in experiment [12] (24 h).
On to `CC(C)C[C@@H]1CCO[C@@H]2[C@H](CN[C@@H]2C(=O)N[C@@H]2C/C=C\CCS[C@H]3O[C@H]2[C@H](O)[C@H](O)[C@H]3O)C1` [FSA1507013, (4S,5aS,8S,8aR)-4-isobutyl-8-(((1R,8R,9R,10R,11S,12R,Z)-10,11,12-trihydroxy-13-oxa-2-thiabicyclo[7.3.1]tridec-5-en-8-yl)carbamoyl) octahydro-2H-oxepino[2,3-c]pyrrol-7-ium formate], for which the MIC in experiment [1] worked out at 2 µg/mL; in experiment [2] it was 2 µg/mL; in experiment [3], 0.125 µg/mL; in experiment [4], 0.5 µg/mL; in [5], 0.125 µg/mL; in [7] (24 h), 2 µg/mL. In addition, the MIC in experiment [8] (24 h) came out at 8 µg/mL; in [9], 0.125 µg/mL; in [10] (24 h) it was 4 µg/mL; in experiment [12] (24 h), 0.5 µg/mL.
With `CC(C)C[C@@H]1CCO[C@@H]2[C@H](CN[C@@H]2C(=O)N[C@@H]2C/C=C\C[C@@H](CO)S[C@H]3O[C@H]2[C@H](O)[C@H](O)[C@H]3O)C1` [FSA1606034, (4S,5aS,8S,8aR)-4-isobutyl-N-((1R,3S,8R,9R,10R,11S,12R,Z)-10,11,12-trihydroxy-3-(hydroxymethyl)-13-oxa-2-thiabicyclo[7.3.1]tridec-5-en-8-yl) octahydro-2H-oxepino[2,3-c]pyrrole-8-carboxamide hydrochloride salt], the MIC in [1] (setting [20]) was above 64 µg/mL; in [2] (setting [21]), 64 µg/mL; in experiment [13] it was 8 µg/mL; in experiment [14], 2 µg/mL; in [5] (setting [22]), 2 µg/mL; in experiment [15] (setting [24]), above 64 µg/mL. Also, the MIC in [16] (setting [25]) is above 64 µg/mL; in experiment [9] (setting [23]), 1 µg/mL; in experiment [17] (setting [26]), above 64 µg/mL; in experiment [18] (setting [27]), 64 µg/mL; in experiment [19] it was 16 µg/mL.
